According to patent US20040176467A1, “Method of preventing or reducing the occurrence of symptoms of psychosis” (priority 2004, published 2004):
Blank lines part the entries; values can stand above or below the compound they belong to.

What was measured:
schizophrenia patients = settings: cited from earlier work
[1] = system: D3 knockout and wild type mice; settings: habituated animals; cited from earlier work
rat locomotion = settings: cited from earlier work; for effect on locomotion at higher doses: significant D2 receptor occupancy or activation; for effect on locomotion at low doses: devoid of significant D2 receptor occupancy; for effect on rat locomotion: D3 antagonists
[2] = system: neurons in substantia nigra (SN), ventral tegmentum (VTA), and nucleus accumbens (NA); settings: cited from earlier work
[3] = system: locomotor sensitization to amphetamine; assay: locomotor sensitization to amphetamine; type: in vivo
[4] = molecular target: D3 dopamine receptor (D3/D2) (Homo sapiens, UniProt P35462); settings: cited from earlier work
Sequence of D3 dopamine receptor (D3/D2) (P35462 whole entry): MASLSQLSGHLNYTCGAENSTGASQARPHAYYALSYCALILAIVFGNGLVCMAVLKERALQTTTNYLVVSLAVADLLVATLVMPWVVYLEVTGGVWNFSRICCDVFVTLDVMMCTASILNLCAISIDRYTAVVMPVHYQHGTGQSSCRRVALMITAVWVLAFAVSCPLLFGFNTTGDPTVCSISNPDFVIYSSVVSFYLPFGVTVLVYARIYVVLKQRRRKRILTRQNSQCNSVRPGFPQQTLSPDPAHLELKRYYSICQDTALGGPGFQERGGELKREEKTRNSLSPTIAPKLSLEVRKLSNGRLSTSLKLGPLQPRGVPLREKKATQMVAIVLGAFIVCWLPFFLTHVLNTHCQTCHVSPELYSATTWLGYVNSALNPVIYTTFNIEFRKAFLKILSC

[5] = system: stereotyped behaviors induced by apomorphine and dizocilipine; settings: preclinical models of antipsychotic drug efficacy; cited from earlier work
D2 receptors = D2 receptors (Homo sapiens, UniProt P14416); assay: biochemical; settings: read-out: occupancy for D2
Sequence of D2 receptors (P14416 whole entry): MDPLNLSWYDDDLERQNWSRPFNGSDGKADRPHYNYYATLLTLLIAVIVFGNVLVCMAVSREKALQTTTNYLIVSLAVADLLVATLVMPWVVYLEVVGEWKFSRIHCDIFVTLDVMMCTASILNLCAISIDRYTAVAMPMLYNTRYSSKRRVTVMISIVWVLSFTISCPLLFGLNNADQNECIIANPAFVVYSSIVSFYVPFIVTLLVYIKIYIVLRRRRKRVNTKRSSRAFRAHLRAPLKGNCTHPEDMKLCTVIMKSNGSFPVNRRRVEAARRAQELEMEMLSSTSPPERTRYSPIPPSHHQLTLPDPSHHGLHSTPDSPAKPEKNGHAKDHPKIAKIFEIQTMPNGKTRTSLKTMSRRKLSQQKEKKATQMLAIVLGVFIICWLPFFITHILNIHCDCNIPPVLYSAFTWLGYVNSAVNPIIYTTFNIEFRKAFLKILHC

behavioral sensitization = settings: later challenge; cited from earlier work
D2 receptor = settings: dose that inhibits sensitization; cited from earlier work

SMILES: CCCN1CCCC(c2cccc(O)c2)C1 (single isomer, unassigned; (-)) [(−)-3PPP, (−)-3-(3-hydroxyphenyl)-N-n-propylpiperidine]
effect on psychotic symptoms (schizophrenia patients): improved psychotic symptoms in schizophrenia patients for up to one week

SMILES: CCCN(CCC)C1CCc2ccc(O)cc2C1 (stereo not shown) [7-OH-DPAT, 7-hydroxy-N,N-di-n-propyl-2-aminotetralin]
difference in hypolocomotor behavioral response between D3 knockout and wild type mice [1]: Neither laboratory found a significant difference | effect on locomotion at higher doses (rat locomotion): stimulation of locomotion | effect on locomotion at low doses (rat locomotion): inhibition of spontaneous locomotion | effect on locomotion after micro-injection (rat locomotion; micro-injection into rat nucleus accumbens, also systemic administration in mice): inhibition of locomotion | effect on neuronal firing rate [2]: inhibits neuronal firing rate | behavioral response to the D3 agonist after a sensitizing regimen of amphetamine ([3]; following a sensitizing regimen of amphetamine): decreased behavioral response

SMILES: CCCN[C@@H]1CCc2c(OC)cccc2[C@@H]1C [(+)-AJ 76]
effect on rat locomotion (rat locomotion): stimulate rat locomotion

SMILES: CCCN(CCC)[C@@H]1CCc2c(OC)cccc2[C@@H]1C [(+)-UH 232]
effect on psychotic symptoms (schizophrenia patients): further worsened positive psychotic symptoms | effect on rat locomotion (rat locomotion): stimulate rat locomotion

SMILES: O=C(NCCCCN1CCN(c2cccc(Cl)c2Cl)CC1)c1ccc2c(c1)Cc1ccccc1-2 [NGB 2904]
preference (selectivity) for D3/D2 [4]: 155 fold

SMILES: CCCN1CCO[C@@H]2c3cc(O)ccc3OC[C@H]21 [PD 128907]
difference in hypolocomotor behavioral response between D3 knockout and wild type mice [1]: Neither laboratory found a significant difference | effect on locomotion at higher doses (rat locomotion): stimulation of locomotion | effect on locomotion at low doses (rat locomotion): inhibition of spontaneous locomotion | effect on stereotyped behaviors induced by apomorphine and dizocilipine [5]: effectively inhibits

SMILES: N#Cc1ccc2c(c1)[C@H]1CN(CCCCNC(=O)c3ccc(-c4ccccc4)cc3)C[C@@H]1CO2 [S33084]
preference (selectivity) for D3/D2 [4]: 100 fold

SMILES: CCCN(CCC)C1Cc2cc(OC)c(OC)cc2C1 [U99194A]
effect on rat locomotion (rat locomotion): stimulate rat locomotion

receptor occupancy at 0.75 µM (D2 receptors): 27%
SMILES: NCCc1ccc(O)c(O)c1 [dopamine]

SMILES: O=C(CCCN1CCC(O)(c2ccc(Cl)cc2)CC1)c1ccc(F)cc1 [haloperidol]
sensitization after repetitive treatment (behavioral sensitization): results in sensitization to later challenge by cocaine, amphetamine, or the dopamine agonist apomorphine

SMILES: CCCCN1CCCC1CNC(=O)c1cc(C#N)c2ccccc2c1OC (stereo not shown) [nafadotride]
effect on rat locomotion (rat locomotion): stimulate rat locomotion | D2 receptor occupancy at the dose used (D2 receptor): devoid of appreciable D2 receptor occupancy | preference (selectivity) for D3/D2 [4]: 10 fold | effect on locomotor sensitization to amphetamine ([3]; dose devoid of appreciable D2 receptor occupancy): inhibition of locomotor sensitization to amphetamine

SMILES: CCN1CCCC1CNC(=O)c1cc(S(N)(=O)=O)ccc1OC (stereo not shown) [sulpiride]
D2/D3 affinity ratio [4]: 2 | sensitization after repetitive treatment (behavioral sensitization): results in sensitization to cocaine
